No end group written: not given here.
How the values were obtained:
[1] = system: P. aeruginosa strain MSC06120; conditions: multidrug resistant P. aeruginosa strain MSC06120; stated as normal values; cited from earlier work
[2] = system: OprM outer loops; experiment: rabbit immunization with KLH-conjugated OprM outer loop peptides, sera screened for immune reaction; type: in vivo; conditions: NZW rabbits, 500 μg per injection subcutaneously on days 0, 21, 42, 63, 84, 105; sera screened for immune reaction to OprM outer loops
Protocol: Polyclonal antibodies were produced using each of the OprM outer loops (with surrounding amino acid residues) conjugated to KLH as immunogens. Rabbits were screened prior to antigen injection for background antibodies that recognize the OprM outer loop immunogens to be used (i.e., SEQ ID NOS:3 and 4). Pre-immune rabbit sera was assayed by ELISA for antibodies to the immunogen.
Eight NZW rabbits were immunized on days 0, 21, 42, 63, 84 and 105 subcutaneously with either KLH-conjugated OprM outer loop 1 (SEQ ID NO:3) or outer loop 2 (SEQ ID NO:4) peptides (500 μg per injection). The Day 0 injection was formulated with Titermax while all subsequent injections were formulated with Freund's incomplete adjuvant. The rabbits were bled on days 52 (5 ml serum obtained), 73 (20 ml serum obtained), 94 (20 ml serum obtained), 115 (20 ml serum obtained) and 118 (50 ml serum obtained).

[3] = target: T1, OprM outer loop 1 (SEQ ID NO:3) (Pseudomonas aeruginosa, UniProt Q51487); experiment: ELISA of immunized rabbit sera, antigen outer loop 1 peptide; type: binding; conditions: antigen SEQ ID NO:3; four rabbits per immunogen; FIG. 1 and 2
T1 construct: made in house; host or cells: chemical peptide synthesis
T1 sequence (Q51487 whole entry, looked up): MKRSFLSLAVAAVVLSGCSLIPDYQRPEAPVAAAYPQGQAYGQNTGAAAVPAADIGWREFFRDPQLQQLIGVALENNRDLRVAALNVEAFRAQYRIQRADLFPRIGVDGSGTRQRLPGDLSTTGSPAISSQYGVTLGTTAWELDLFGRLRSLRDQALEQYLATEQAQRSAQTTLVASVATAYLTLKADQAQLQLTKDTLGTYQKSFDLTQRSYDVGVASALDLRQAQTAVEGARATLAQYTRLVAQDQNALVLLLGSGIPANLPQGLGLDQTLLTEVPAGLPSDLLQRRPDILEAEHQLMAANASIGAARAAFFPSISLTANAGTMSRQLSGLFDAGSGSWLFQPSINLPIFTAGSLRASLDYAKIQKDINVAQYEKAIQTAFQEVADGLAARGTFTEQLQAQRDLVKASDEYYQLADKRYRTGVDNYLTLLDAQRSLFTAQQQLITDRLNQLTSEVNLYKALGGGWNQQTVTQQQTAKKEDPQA
Protocol: (§1) Sera was assayed by ELISA to measure the amount of anti-OprM antibodies that were induced by the immunization. Purified peptide from either outer loop 1 or outer loop 2 was plated each well of a 96-well plate. A solution of PBS+3% BSA was used for non-specific blocking and sample/control/secondary antibody dilutions. The sample serum was run against a negative control (normal sera) and a positive control (anti-ovalbumin). The signal was detected using HRP conjugated anti-rabbit secondary antibodies and ABTS peroxidase substrate system. The plates were read at a wavelength of 415 nm with a reference at 570 nm.

[4] = target: T2, OprM outer loop 2 (SEQ ID NO:4) (Pseudomonas aeruginosa, UniProt Q51487); experiment: ELISA of immunized rabbit sera, antigen outer loop 2 peptide; type: binding; conditions: antigen SEQ ID NO:4; four rabbits per immunogen; FIG. 1 and 2
T2 construct: made in house; host or cells: chemical peptide synthesis
T2 sequence (Q51487 whole entry, looked up): T1 sequence (Q51487 whole entry, looked up)
Protocol: as §1

## NCC[C@H](O)C(=O)N[C@@H]1C[C@H](N)[C@@H](O[C@H]2O[C@H](CN)[C@@H](O)[C@H](O)[C@H]2O)[C@H](O)[C@H]1O[C@H]1O[C@H](CO)[C@@H](O)[C@H](N)[C@H]1O [amikacin]
[1]
  growth inhibitory concentration: 64 µg/mL

## O=C(O)c1cn(C2CC2)c2cc(N3CCNCC3)c(F)cc2c1=O [ciprofloxacin]
[1]
  growth inhibitory concentration: > 256 µg/mL

## KLH-conjugated OprM outer loop 1 (SEQ ID NO:3): OprM outer loop 1 peptide with surrounding residues (SEQ ID NO:3), N-terminal CKK added, conjugated to keyhole limpet hemocyanin carrier (CKKRLPGDLSTTGSPA; also: conjugated to KLH carrier, site not given here; listed as Pseudomonas aeruginosa)
[2]
  immune response in immunized rabbits: generated an immune response
[3]
  antibodies in sera binding to peptide containing outer loop 1 (titer / cross-reactivity), ELISA: high titer
[4]
  antibodies in sera binding to peptide containing outer loop 2 (titer / cross-reactivity), ELISA: 1 rabbit showed a small amount of cross-reactivity

## outer loop 2 (SEQ ID NO:4): OprM outer loop 2 peptide with surrounding residues (SEQ ID NO:4), N-terminal CKK added, conjugated to keyhole limpet hemocyanin carrier (CKKSRQLSGLFDAGSG; also: conjugated to KLH carrier, site not given here; listed as Pseudomonas aeruginosa)
[2]
  immune response in immunized rabbits: generated an immune response
[3]
  antibodies in sera binding to peptide containing outer loop 1 (titer / cross-reactivity), ELISA: 2 rabbits showed a small amount of cross-reactivity
[4]
  antibodies in sera binding to peptide containing outer loop 2 (titer / cross-reactivity), ELISA: high titer
